We go through 21 molecules from patent publication US12421205B2, “GLP-1 receptor agonist” (HYUNDAI PHARM CO., LTD., priority 2019, dated 2025).

Each structure is given as a SMILES string. Like-named read-outs stand apart in the source and are kept apart here. Where only a bound is given, the exact number is not on record here.

Usually EC50 stands for the midpoint of the concentration-response curve. One may read the inhibition as the drop in the measured response relative to a control, in per cent.

For data set [1], the target named is T1, human GLP-1 receptor (Homo sapiens, UniProt P43220).
T1 construct: host or cells: CHO-K1
T1 sequence (P43220 24-463): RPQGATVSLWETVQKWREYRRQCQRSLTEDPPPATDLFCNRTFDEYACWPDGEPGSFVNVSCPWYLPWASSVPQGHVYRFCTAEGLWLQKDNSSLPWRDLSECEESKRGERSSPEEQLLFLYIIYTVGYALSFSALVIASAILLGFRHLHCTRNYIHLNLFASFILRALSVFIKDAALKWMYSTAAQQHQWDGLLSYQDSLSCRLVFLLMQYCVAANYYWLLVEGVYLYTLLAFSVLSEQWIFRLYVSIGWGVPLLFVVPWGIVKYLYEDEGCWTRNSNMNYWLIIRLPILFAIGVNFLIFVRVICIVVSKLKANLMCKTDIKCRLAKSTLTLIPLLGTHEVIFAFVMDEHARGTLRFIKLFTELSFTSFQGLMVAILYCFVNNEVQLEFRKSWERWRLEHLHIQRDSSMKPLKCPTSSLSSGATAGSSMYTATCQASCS
The data set is described as follows: cAMP activity test (cAMP dynamic HTRF kit) in CHO-K1/GLP-1 receptor-expressing cells. Type of data set: cell-based. On the procedure: The next day, the medium was removed, and a 50 uL of HBSS medium containing 0.1% BSA, 0.5 mM IBMX, and 5 mM HEPES was added to each well. […] The cAMP activity was measured according to the manufacturer's instructions using the cAMP dynamic HTRF kit (Cisbio, 62AM4PEC). After incubation, the medium was discarded, and the cells were lysed. cAMP-d2 and anti-cAMP cryptate conjugate were added thereto and reacted for 3 hours. […] Intracellular cAMP competes with cAMP-d2 for anti-cAMP cryptate, and the measured signal of fluorescence resonance energy transfer (FRET) is inversely proportional to intracellular cAMP.
(In general: Time-resolved FRET reads energy transfer from a long-lived donor to a nearby acceptor.)

In data set [2] the target is T2, hERG (Homo sapiens, UniProt Q12809).
T2 construct: purchased Invitrogen PV5365
T2 sequence (Q12809 whole entry): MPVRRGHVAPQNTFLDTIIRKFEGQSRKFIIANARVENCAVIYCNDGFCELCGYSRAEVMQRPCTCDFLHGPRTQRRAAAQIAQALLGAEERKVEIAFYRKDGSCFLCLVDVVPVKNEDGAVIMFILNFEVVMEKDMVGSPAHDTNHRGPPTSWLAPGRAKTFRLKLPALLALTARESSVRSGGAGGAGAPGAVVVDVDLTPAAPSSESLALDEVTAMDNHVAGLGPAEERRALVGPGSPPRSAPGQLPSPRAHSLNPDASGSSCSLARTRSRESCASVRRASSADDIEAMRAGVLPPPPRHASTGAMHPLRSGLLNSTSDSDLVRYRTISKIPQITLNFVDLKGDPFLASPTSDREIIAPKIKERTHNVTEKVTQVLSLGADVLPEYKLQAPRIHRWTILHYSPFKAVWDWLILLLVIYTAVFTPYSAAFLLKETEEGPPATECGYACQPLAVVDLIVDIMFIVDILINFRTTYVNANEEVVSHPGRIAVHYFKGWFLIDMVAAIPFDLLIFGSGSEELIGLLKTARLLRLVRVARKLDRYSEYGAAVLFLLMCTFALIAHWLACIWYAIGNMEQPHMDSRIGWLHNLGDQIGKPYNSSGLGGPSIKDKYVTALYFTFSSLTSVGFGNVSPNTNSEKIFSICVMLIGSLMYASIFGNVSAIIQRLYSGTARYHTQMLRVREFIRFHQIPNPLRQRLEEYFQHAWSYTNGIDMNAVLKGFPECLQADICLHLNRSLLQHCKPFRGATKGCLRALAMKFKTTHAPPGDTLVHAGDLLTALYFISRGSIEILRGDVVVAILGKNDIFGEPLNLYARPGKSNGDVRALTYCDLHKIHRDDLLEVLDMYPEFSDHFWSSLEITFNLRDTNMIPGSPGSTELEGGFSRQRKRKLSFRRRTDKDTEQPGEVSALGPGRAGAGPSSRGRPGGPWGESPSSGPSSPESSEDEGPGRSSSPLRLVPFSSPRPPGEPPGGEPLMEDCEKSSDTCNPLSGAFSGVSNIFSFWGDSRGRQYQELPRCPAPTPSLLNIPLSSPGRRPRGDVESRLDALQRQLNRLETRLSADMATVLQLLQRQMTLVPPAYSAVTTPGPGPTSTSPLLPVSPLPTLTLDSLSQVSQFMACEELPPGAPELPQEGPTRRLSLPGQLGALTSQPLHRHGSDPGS
The data set is described as follows: hERG inhibition test (Predictor hERG Fluorescence Polarization assay kit). Type of data set: binding. To be noted: probe kit Tracer (fluorescent hERG ligand), hERG % inhibition at 10 uM, relative to E-4031 and solvent control. The method, then:
To measure the hERG (Human ether-a-go-go-related gene) channel inhibition rate of the compound according to the present invention, the following test was performed using a Predictor hERG Fluorescence Polarization assay kit (Invitrogen, PV5365).
Specifically, a test substance was dissolved in DMSO to prepare a 50 mM solution. A 4 mM solution was prepared by diluting the 50 mM solution with DMSO in a U bottom 96-well plate (SPL, 34096), and was then diluted 100-fold with a test buffer to prepare a 40 uM (4×) solution. The positive control E-4031 (3 mM) provided in the kit was diluted 25-fold with a test buffer to prepare a 120 uM solution) 5 uL of the diluted test substance solution was dispensed into a 384-well assay plate (corning, 3677). hERG Membrane (2×) and Tracer (4×) provided in the kit were respectively added at 10 uL and 5 uL, and then subjected to the reaction at room temperature for 2.5 hours. After completion of the reaction, fluorescence polarization (mP) was measured with a Multimode Plate Reader (Perkin-Elmer, Envision) (excitation wavelength of 531 nm, and emission wavelength 579 nm). The value of the percent inhibitory activity (% inhibition) at 10 uM of each test substance was calculated by the following equation, and the results are shown in Table 2: (% inhibition)=100−{(mP of the compound according to the present invention−E-4031 mP)/(mP of the solvent control−E-4031 mP)}×100

[3] abbreviates: cAMP activity, CHO-K1/GLP-1 receptor-expressing cells, read-out: EC50.

With `COCCn1c(Cc2ccc(-c3cccc(OCc4ccc(C#N)cc4F)n3)cc2)nc2ccc(C(=O)O)cc21` [Example 20, 2-(4-(6-(4-cyano-2-fluorobenzyloxy)pyridin-2-yl)benzyl)-1-(2-methoxyethyl)-1H-benzo[d]imidazole-6-carboxylic acid], the EC50 in data set [1] (setting [3]) turned out to be 240 nM. For the same molecule, the inhibition at 2.5 h, 10 µM in data set [2] is 6.19%.
For `N#Cc1ccc(COc2cccc(-c3ccc(Cc4nc5ccc(C(=O)O)cc5n4CCF)cc3F)n2)c(F)c1` [Example 58, 2-(4-(6-(4-cyano-2-fluorobenzyloxy)pyridin-2-yl)-3-fluorobenzyl)-1-(2-fluoroethyl)-1H-benzo[d]imidazole-6-carboxylic acid] the same measures were 170 nM and 2.81%.
Turning to `O=C(O)c1ccc2nc(Cc3ccc(-c4cccc(OCc5ccc(C(F)(F)F)cc5)n4)cc3F)n(CC3CCCO3)c2c1` (stereo not drawn) [Example 77, 2-(2-fluoro-4-(6-(4-(trifluoromethyl)benzyloxy)pyridin-2-yl)benzyl)-1-((tetrahydrofuran-2-yl)methyl)-1H-benzo[d]imidazole-6-carboxylic acid], in data set [1] (setting [3]), the EC50 is 28 nM. In addition, the inhibition at 2.5 h, 10 µM in data set [2] was -70.9%.
As for `N#Cc1ccc(COc2cccc(-c3ccc(Cc4nc5ccc(C(=O)O)cc5n4C[C@H]4CCCO4)c(F)c3)c2)c(F)c1` [Example 46, (R)-2-((3′-(4-cyano-2-fluorobenzyloxy)-3-fluorobiphenyl-4-yl)methyl)-1-((tetrahydrofuran-2-yl)methyl)-1H-benzo[d]imidazole-6-carboxylic acid], in data set [1] (setting [3]), the EC50 turned out to be 260 nM. Further, the inhibition at 2.5 h, 10 µM in data set [2] is 1.04%.
In the case of `CCn1cncc1Cn1c(Cc2ccc(-c3cccc(OCc4ccc(Cl)cc4F)n3)cc2F)nc2ccc(C(=O)O)cc21` [Example 72, 2-(4-(6-(4-chloro-2-fluorobenzyloxy)pyridin-2-yl)-2-fluorobenzyl)-1-((1-ethyl-1H-imidazole-5-yl)methyl)-1H-benzo[d]imidazole-6-carboxylic acid], the EC50 in data set [1] (setting [3]) is less than 3.2 nM. Besides, the inhibition at 2.5 h, 10 µM in data set [2] is -5.75%.
With `N#Cc1ccc(COc2cccc(-c3ccn(Cc4nc5ccc(C(=O)O)cc5n4C[C@@H]4CCCO4)c(=O)c3)n2)c(F)c1` [Example 109, (S)-2-((4-(6-(4-cyano-2-fluorobenzyloxy)pyridin-2-yl)-2-oxopyridin-1(2H)-yl)methyl)-1-((tetrahydrofuran-2-yl)methyl)-1H-benzo[d]imidazole-6-carboxylic acid], the EC50 in data set [1] (setting [3]) was found to be 130 nM. Also, the inhibition at 2.5 h, 10 µM in data set [2] was 6.49%.
Regarding `COCCn1c(Cc2ccc(-c3cccc(OCc4ccc(C#N)cc4F)n3)cc2C)nc2ccc(C(=O)O)cc21` [Example 54, 2-(4-(6-(4-cyano-2-fluorobenzyloxy)pyridin-2-yl)-2-methylbenzyl)-1-(2-methoxyethyl)-1H-benzo[d]imidazole-6-carboxylic acid], in data set [1] (setting [3]), the EC50 was 110 nM. In addition, the inhibition at 2.5 h, 10 µM in data set [2] was 36.5%.
With `N#Cc1ccc(COc2cccc(-c3cc(F)c(Cc4nc5ccc(C(=O)O)cc5n4CC4CCCO4)cc3F)n2)c(F)c1` (stereo not drawn) [Example 71, 2-(4-(6-(4-cyano-2-fluorobenzyloxy)pyridin-2-yl)-2,5-difluorobenzyl)-1-((tetrahydrofuran-2-yl)methyl)-1H-benzo[d]imidazole-6-carboxylic acid], in data set [1] (setting [3]), the EC50 was less than 3.2 nM. Moreover, the inhibition at 2.5 h, 10 µM in data set [2] was -2.52%.
Take `COCCn1c(Cc2ccc(-c3cccc(OCc4ccc(C#N)cc4F)n3)c(F)c2)nc2ccc(C(=O)O)cc21` [Example 38, 2-(4-(6-(4-cyano-2-fluorobenzyloxy)pyridin-2-yl)-3-fluorobenzyl)-1-(2-methoxyethyl)-1H-benzo[d]imidazole-6-carboxylic acid]: in data set [1], the EC50 came to 140 nM. The inhibition at 2.5 h, 10 µM in data set [2] was 9.5%.
For `O=C(O)c1ccc2nc(Cc3cc(F)c(-c4cccc(OCc5ccc(Cl)cc5F)n4)cc3F)n(CC3CCCO3)c2c1` (stereo not drawn) [Example 70, 2-(4-(6-(4-chloro-2-fluorobenzyloxy)pyridin-2-yl)-2,5-difluorobenzyl)-1-((tetrahydrofuran-2-yl)methyl)-1H-benzo[d]imidazole-6-carboxylic acid], the EC50 in data set [1] (setting [3]) is less than 3.2 nM. Besides, in data set [2], the inhibition at 2.5 h, 10 µM is -6.14%.
In the same order, the values of `O=C(O)c1ccc2nc(Cc3ccc(-c4cccc(OCc5ccc(F)c(F)c5)n4)cc3F)n(CC3CCCO3)c2c1` (stereo not drawn) [Example 85, 2-(4-(6-(3,4-difluorobenzyloxy)pyridin-2-yl)-2-fluorobenzyl)-1-((tetrahydrofuran-2-yl)methyl)-1H-benzo[d]imidazole-6-carboxylic acid] are 74 nM and -12.9%.
Take `COc1ccc(COc2cccc(-c3ccc(Cc4nc5ccc(C(=O)O)cc5n4C[C@@H]4CCO4)cc3F)n2)cc1` [Example 122, (S)-2-(3-fluoro-4-(6-((4-methoxybenzyl)oxy)pyridin-2-yl)benzyl)-1-(oxetan-2-ylmethyl)-1H-benzo[d]imidazole-6-carboxylic acid]: the EC50 in data set [1] (setting [3]) worked out at 9.5 nM. Also, the inhibition at 2.5 h, 10 µM in data set [2] was -5.75%.
As for `O=C(O)c1ccc2nc(Cn3ccc(-c4cccc(OCc5ccc(Cl)cc5F)c4)cc3=O)n(CC3CCCO3)c2c1` (stereo not drawn) [Example 106, 2-((4-(3-(4-chloro-2-fluorobenzyloxy)phenyl)-2-oxopyridin-1(2H)-yl)methyl)-1-((tetrahydrofuran-2-yl)methyl)-1H-benzo[d]imidazole-6-carboxylic acid], the EC50 in data set [1] (setting [3]) was found to be 110 nM. In addition, the inhibition at 2.5 h, 10 µM in data set [2] was -2.71%.
For the molecule `COCCn1c(Cc2ccc(-c3cccc(OCc4ccc(Cl)cc4F)c3)cc2F)nc2ccc(C(=O)O)cc21` [Example 36, 2-((3′-(4-chloro-2-fluorobenzyloxy)-3-fluorobiphenyl-4-yl)methyl)-1-(2-methoxyethyl)-1H-benzo[d]imidazole-6-carboxylic acid], the EC50 in data set [1] (setting [3]) amounted to 88 nM. For the same molecule, the inhibition at 2.5 h, 10 µM in data set [2] is -10.8%.
With `O=C(O)c1ccc2nc(Cc3ccc(-c4cccc(OCc5ccc(Cl)cc5F)c4)cc3F)n(CC3CCCO3)c2c1` (stereo not drawn) [Example 16, 2-((3′-(4-chloro-2-fluorobenzyloxy)-3-fluorobiphenyl-4-yl)methyl)-1-((tetrahydrofuran-2-yl)methyl)-1H-benzo[d]imidazole-6-carboxylic acid], in data set [1] (setting [3]), the EC50 worked out at 82 nM. Also, the inhibition at 2.5 h, 10 µM in data set [2] is -0.94%.
On to `O=C(O)c1ccc2nc(Cc3c(F)cc(-c4cccc(OCc5ccc(Cl)cc5F)n4)cc3F)n(CC3CCCO3)c2c1` (stereo not drawn) [Example 65, 2-(4-(6-(4-chloro-2-fluorobenzyloxy)pyridin-2-yl)-2,6-difluorobenzyl)-1-((tetrahydrofuran-2-yl)methyl)-1H-benzo[d]imidazole-6-carboxylic acid], for which, in data set [1] (setting [3]), the EC50 is 5 nM. Further, in data set [2], the inhibition at 2.5 h, 10 µM was 10.8%.
For the molecule `Cc1cc(-c2cccc(OCc3ccc(C#N)cc3F)n2)ccc1Cc1nc2ccc(C(=O)O)cc2n1CC1CCCO1` (stereo not drawn) [Example 68, 2-(4-(6-(4-cyano-2-fluorobenzyloxy)pyridin-2-yl)-2-methylbenzyl)-1-((tetrahydrofuran-2-yl)methyl)-1H-benzo[d]imidazole-6-carboxylic acid], the EC50 in data set [1] (setting [3]) was 29 nM. Besides, in data set [2], the inhibition at 2.5 h, 10 µM was -11.4%.
As to `Cc1cc(-c2cccc(OCc3ccc(C#N)cc3F)n2)ccc1Cc1nc2ccc(C(=O)O)cc2n1C[C@@H]1CCO1` [Example 133, (S)-2-(4-(6-((4-cyano-2-fluorobenzyl)oxy)pyridin-2-yl)-2-methylbenzyl)-1-(oxetan-2-ylmethyl)-1H-benzo[d]imidazole-6-carboxylic acid], the EC50 in data set [1] (setting [3]) was 14 nM. The inhibition at 2.5 h, 10 µM in data set [2] is 41%.
For `COCCn1c(Cc2ccc(-c3cccc(OCc4ccc(C#N)cc4F)c3)cc2)nc2ccc(C(=O)O)cc21` [Example 21, 2-((3′-(4-cyano-2-fluorobenzyloxy)biphenyl-4-yl)methyl)-1-(2-methoxyethyl)-1H-benzo[d]imidazole-6-carboxylic acid], in data set [1] (setting [3]), the EC50 turned out to be 420 nM. Further, in data set [2], the inhibition at 2.5 h, 10 µM was -9.94%.
With `O=C(O)c1ccc2nc(Cn3cnc(-c4cccc(OCc5ccc(Cl)cc5F)n4)cc3=O)n(CC3CCCO3)c2c1` (stereo not drawn) [Example 112, 2-((4-(6-(4-chloro-2-fluorobenzyloxy)pyridin-2-yl)-6-oxopyrimidin-1(6H)-yl)methyl)-1-((tetrahydrofuran-2-yl)methyl)-1H-benzo[d]imidazole-6-carboxylic acid], in data set [1] (setting [3]), the EC50 was 290 nM. Also, the inhibition at 2.5 h, 10 µM in data set [2] was 1.14%.
Regarding `N#Cc1ccc(COc2cccc(-c3ccc(Cc4nc5ccc(C(=O)O)cc5n4Cc4ccco4)cc3)c2)c(F)c1` [Example 27, 2-((3′-(4-cyano-2-fluorobenzyloxy)biphenyl-4-yl)methyl)-1-(furan-2-ylmethyl)-1H-benzo[d]imidazole-6-carboxylic acid], the EC50 in data set [1] (setting [3]) was determined as 270 nM. Further, the inhibition at 2.5 h, 10 µM in data set [2] is -4.76%.
